In patent publication US20230142592A1, “AROMATIC COMPOUND, ORGANIC SEMICONDUCTOR LAYER AND ORGANIC THIN FILM TRANSISTOR” (TOSOH CORPORATION, priority 2020, published 2023):

Columns and labels:
[1] = Solution for forming organic semiconductor layer: kept in solution state in toluene at 25° C.; format: physicochemical; conditions: heated to 50° C. to dissolve, allowed to cool at room temperature (25° C.)
Method: In the air, in a 10 mL sample tube, 0.87 mg of 2,7-di(2-phenylethyl)dithienobiphenylene (Compound 1) synthesized in Example 1 and 434 mg of toluene (FUJIFILM Wako Pure Chemical Corporation, pure grade) was added and the resultant was heated to 50° C. to dissolve, and then allowed to cool at room temperature (25° C.) to thereby prepare a solution for forming an organic semiconductor layer.
The solution for forming an organic semiconductor layer was kept in a solution state after 10 hours at 25° C. (concentration of Compound 1: 0.20% by weight), confirming that this was a compound suitable for film formation by drop casting and inkjet.

[2] = Solution for forming organic semiconductor layer: kept in solution state in toluene at 25° C.; format: physicochemical; conditions: .44 mg in 434 mg of toluene; heated to 50° C., allowed to cool at 25° C.
[3] = generally; cited from earlier work
[4] = Bottom gate-bottom contact p-type organic thin film transistor, transfer characteristics; conditions: toluene solution, annealed at 130° C. for 10 min
Method: (§1) Furthermore, this organic thin film transistor was annealed at 130° C. for 10 min and then measured for an electric physical property.

[5] = Top gate-bottom contact p-type organic thin film transistor, transfer characteristics; conditions: annealed at 130° C. for 10 min
Method: The solution for forming an organic semiconductor layer obtained in Example 2 was used to produce a top gate-bottom contact p-type organic thin film transistor.
as §1

concentration of solution kept in a solution state after 10 hours at 25° C. [1] [% by weight] | Compound | also measured
1.00 | c1ccc(CCc2cc3ccc4c(c3s2)-c2ccc3ccsc3c2-4)cc1 [Compound 13, 2-(2-phenylethyl)dithienobiphenylene] | melting point: 161 °C
0.10 | COc1ccc(CCc2cc3ccc4cc5c(ccc6ccsc65)cc4c3s2)cc1 [Compound 24, 2-(2-(4-methoxyphenyl)ethyl)anthra[1,2-b:5,6-b′]dithiophene] | –
0.20 | c1ccc(CCc2cc3ccc4cc5c(ccc6cc(CCc7ccccc7)sc65)cc4c3s2)cc1 [Compound 10, 2,8-di(2-phenylethyl)anthra[1,2-b:5,6-b′]dithiophene] | –
0.20 | CCCCCCCc1ccc(CCc2cc3ccc4cc5c(ccc6ccsc65)cc4c3s2)cc1 [Compound 18, 2-(2-(4-n-heptylphenyl)ethyl)anthra[1,2-b:5,6-b′]dithiophene] | –
0.40 | 2,7-di(2-(4-butylphenyl)ethyl)dithienobiphenylene [Compound 5] | –
0.20 | CCCCCCCCc1ccc2c(c1)sc1c3ccc(CCCCCCCC)cc3sc21 [2,7-dioctyl[1]benzothieno[3,2-b][1]benzothiophene, reference compound] | degradation in performance due to heat treatment [4]: transistor operation was not achieved
1.00 | CCCCc1ccc(CCc2cc3ccc4cc5c(ccc6ccsc65)cc4c3s2)cc1 [Compound 17, 2-(2-(4-n-butylphenyl)ethyl)anthra[1,2-b:5,6-b′]dithiophene] | degradation in performance due to heat treatment [4]: almost no degradation in performance
0.20 | c1ccc(CCc2cc3ccc4c(c3s2)-c2ccc3cc(CCc5ccccc5)sc3c2-4)cc1 [Compound 1, 2,7-di(2-phenylethyl)dithienobiphenylene] | degradation in performance due to heat treatment [5]: almost no degradation in performance; melting point: 195 °C; degradation in performance due to heat treatment [4]: almost no degradation in performance

More lines, now with the values behind:

Compound | concentration of solution kept in a solution state after 10 hours at 25° C. [1] [% by weight] | also measured
2,7-di(2-(4-heptylphenyl)ethyl)dithienobiphenylene [Compound 6] | 0.20 | –
c1ccc(-c2ccc3c(c2)sc2c4ccc(-c5ccccc5)cc4sc32)cc1 [2,7-diphenyl[1]benzothieno[3,2-b][1]benzothiophene] | – | solution state after cooling to room temperature (solubility) [2]: a solid was deposited; solubility in an organic solvent [3]: almost insoluble
Cc1ccc(CCc2cc3ccc4c(c3s2)-c2ccc3ccsc3c2-4)cc1 [Compound 14, 2-(2-(4-methylphenyl)ethyl)dithienobiphenylene] | 1.00 | –
c1ccc(CCc2cc3ccc4cc5c(ccc6ccsc65)cc4c3s2)cc1 [Compound 15, 2-(2-phenylethyl)anthra[1,2-b:5,6-b′]dithiophene] | 0.40 | –
CCCCCCCCc1cc2ccc3cc4c(ccc5cc(CCCCCCCC)sc54)cc3c2s1 [2,8-dioctylanthra[1,2-b:5,6-b′]dithiophene, reference compound] | 0.20 | –
2,7-di(2-(4-propylphenyl)ethyl)dithienobiphenylene [Compound 4] | 0.10 | –
Cc1ccc(CCc2cc3ccc4cc5c(ccc6ccsc65)cc4c3s2)cc1 [Compound 16, 2-(2-(4-methylphenyl)ethyl)anthra[1,2-b:5,6-b′]dithiophene] | 0.50 | –
CCCOc1ccc(CCc2cc3ccc4cc5c(ccc6ccsc65)cc4c3s2)cc1 [Compound 23, 2-(2-(4-propoxyphenyl)ethyl)anthra[1,2-b:5,6-b′]dithiophene] | 1.00 | –
